Experiments:
Format in all cases: cell-based, human
PC-3 cells = test: Antiproliferative activity, Alamar Blue assay, PC-3 cells; conditions: Homo sapiens, PC-3, PC3 cells, Alamar Blue; read-out: PC3 antiproliferative activity pIC50 (converted)
Summary of the method: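 Resazurin-based fluorescence (540 nm ex/590 nm em) measured after 4-day compound treatment plus 24 hrs dye incubation at 37° C. Cells plated at 4.5×10^3 cells/ml, adhered 24 hr first. pIC50 from probit-derived IC50 on % viable cells versus untreated, triplicate wells.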

HCT116 cells [1] = test: Antiproliferative activity, Alamar Blue assay, HCT116 cells; conditions: Homo sapiens, HCT-116, HCT116 cells, Alamar Blue; read-out: HCT116 antiproliferative activity pIC50 (converted)
Summary of the method: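 Readout is resazurin fluorescence (ex 540, em 590 nm) after a 4 h dye incubation at 37 °C, following 4-day compound treatment of HCT116 cells plated 24 h earlier. Results expressed as % viable cells versus untreated; pIC50 derived from probit-fitted IC50.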

HCT116 cells [2] = test: Mitotic arrest assay on HCT116 cells (phospho-histone H3 Ser10); conditions: Homo sapiens, HCT-116, HCT116 cells; lowest active dose; read-out: Mitotic arrest HCT116 LAD (converted)
Summary of the method: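 Read-out is imaging of phospho-histone H3 Ser10 (Alexa Fluor 488) with Hoechst nuclear counting, after 6 h compound exposure at 37 °C, DMSO ≤0.1%. LAD is the lowest dose at which the blank-corrected value over SD exceeds 5; triplicates, low-count wells excluded.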

SMILES	IC50 (PC-3 cells) [nM]	IC50 (HCT116 cells [1]) [nM]	minimal effective concentration (HCT116 cells [2]) [µM]
CCc1cc2ccc(C(C)(C#N)Cc3cccc(C#CCN(C)C)c3)cc2[nH]c1=O (stereo not drawn) [Compound 298]	6310	2510	1
CCc1cc2ccc(C(C)(C#N)CNCc3cccc(C#N)c3)cc2[nH]c1=O (stereo not drawn) [Compound 301]	10000	3980	1
CCc1cc2ccc(C(C)(C#N)Cc3cnc(Cl)nc3Cl)cc2[nH]c1=O (stereo not drawn) [Compound 306]	2000	2000	10
COc1cc(OC)nc(CC(C)(C#N)c2ccc3cc(C)c(=O)[nH]c3c2)n1 (stereo not drawn) [Compound 308]	316	316	0.1
CCOc1cc(OCC)nc(CC(C)(C#N)c2ccc3cc(CC)c(=O)[nH]c3c2)n1 (stereo not drawn) [Compound 309]	2000	1000	1
CCc1cc2ccc(C(C)(C#N)Cc3cccc(Cl)n3)cc2[nH]c1=O (stereo not drawn) [Compound 310]	631	501	0.3
CCc1cc2ccc(C(C)(C#N)Cc3ncc(C)c(OC)c3C)cc2[nH]c1=O (stereo not drawn) [Compound 311]	7940	3160	1
CCc1cc2ccc(C(C)(C#N)Cc3ccc(C)nc3)cc2[nH]c1=O (stereo not drawn) [Compound 327]	7940	2000	3
CCc1cc2ccc(C(C)(C#N)Cc3cccc(C#N)n3)cc2[nH]c1=O (stereo not drawn) [Compound 329]	501	316	0.3
CCCn1ccnc1CC(C)(C#N)c1ccc2cc(CC)c(=O)[nH]c2c1 (stereo not drawn) [Compound 335]	10000	5010	3
CCc1cc2ccc(C(C)(C#N)Cc3ccc4ccccc4n3)cc2[nH]c1=O (stereo not drawn) [Compound 336]	2510	2510	1
CCc1cc2ccc(C(C)(C#N)Cc3nccn3CC)cc2[nH]c1=O (stereo not drawn) [Compound 337]	5010	5010	1
CCc1cc2ccc(C(C)(C#N)Cc3nc4ccccc4n3C)cc2[nH]c1=O (stereo not drawn) [Compound 338]	2000	1580	0.3
CCc1cc2ccc(C(C)(C#N)Cc3cccc(C)n3)cc2[nH]c1=O (stereo not drawn) [Compound 343]	2000	794	0.3
CCc1cc2ccc(C(C)(C#N)Cc3cccc(Br)n3)cc2[nH]c1=O (stereo not drawn) [Compound 344]	631	316	0.3
CCc1cc2ccc(C(C)(C#N)Cc3cccc(CO)n3)cc2[nH]c1=O (stereo not drawn) [Compound 345]	3980	2000	0.3
CCc1cc2ccc(C(C)(C#N)Cc3ccc(OC)nc3)cc2[nH]c1=O (stereo not drawn) [Compound 352]	2510	1260	1

SMILES	IC50 (PC-3 cells) [nM]	IC50 (HCT116 cells [1]) [nM]	minimal effective concentration (HCT116 cells [2]) [µM]
CCc1cc2ccc(C(C)(C#N)Cc3cccc(OC)n3)cc2[nH]c1=O (stereo not drawn) [Compound 353]	251	200	0.3
CCc1cc2ccc(C(C)(C#N)Cc3cnc(OC)nc3Cl)cc2[nH]c1=O (stereo not drawn) [Compound 356]	794	631	0.1
CCc1cc2ccc(C(C)(C#N)Cc3cnc(OC)nc3OC)cc2[nH]c1=O (stereo not drawn) [Compound 357]	398	398	0.3
CCc1cc2ccc(C(C)(C#N)Cc3cc(OC)nc(OC)n3)cc2[nH]c1=O (stereo not drawn) [Compound 358]	2510	3160	0.3
CCc1cc2ccc(C(C)(C#N)Cc3nc(Cl)cc(N(C)C)n3)cc2[nH]c1=O (stereo not drawn) [Compound 359]	501	200	0.1
CCc1cc2ccc(C(C)(C#N)Cc3nccc(OC)n3)cc2[nH]c1=O (stereo not drawn) [Compound 360]	1260	1260	1
CCc1cc2ccc(C(C)(C#N)Cc3cc(OCCOC)nc(C)n3)cc2[nH]c1=O (stereo not drawn) [Compound 363]	5010	5010	3
CCc1cc2ccc(C(C)(C#N)Cc3cc(N(C)C)nc(Cl)n3)cc2[nH]c1=O (stereo not drawn) [Compound 364]	794	1260	1
CCc1cc2ccc(C(C)(C#N)Cc3cc(OC)nc(C)n3)cc2[nH]c1=O (stereo not drawn) [Compound 366]	631	631	0.3
CCc1cc2ccc(C(C)(C#N)Cc3cc(OCCOC)nc(Cl)n3)cc2[nH]c1=O (stereo not drawn) [Compound 367]	3980	2510	1
CCc1cc2ccc(C(C)(C#N)Cc3nc(C)cc(C)n3)cc2[nH]c1=O (stereo not drawn) [Compound 368]	1260	1580	1
CCc1cc2ccc(C(C)(C#N)Cc3nccc(OCCOC)n3)cc2[nH]c1=O (stereo not drawn) [Compound 369]	6310	3980	1
CCc1cc2ccc(C(C)(C#N)Cc3nc(Cl)cc(OCCOC)n3)cc2[nH]c1=O (stereo not drawn) [Compound 370]	2510	1580	1
CCc1cc2ccc(C(C)(C#N)Cc3cc(Cl)nc(Cl)c3)cc2[nH]c1=O (stereo not drawn) [Compound 372]	501	398	0.1
CCc1cc2ccc(C(C)(C#N)Cc3cc(OC)ccn3)cc2[nH]c1=O (stereo not drawn) [Compound 373]	10000	7940	1
CCc1cc2ccc(C(C)(C#N)CC3CCc4ccccc4O3)cc2[nH]c1=O (stereo not drawn) [Compound 399]	631	631	0.3
